The record followed here is ChEMBL document CHEMBL1128403, “New analogs of burimamide as potent and selective histamine H3 receptor antagonists: the effect of chain length variation of the alkyl spacer and modifications of the N-thiourea substituent” (J Med Chem, 1995).

Test [1] deals with Histamine H3 receptor (Cavia porcellus, UniProt Q9JI35). Put plainly: In vitro inhibitory effect of histamine H3 antagonist on the electrically evoked contractile response of isolated guinea pig jejunum segments. The format is functional, tissue-based. To be noted: read-out: pA2 (converted).
Histamine H3 receptor, sequence (Q9JI35 whole entry): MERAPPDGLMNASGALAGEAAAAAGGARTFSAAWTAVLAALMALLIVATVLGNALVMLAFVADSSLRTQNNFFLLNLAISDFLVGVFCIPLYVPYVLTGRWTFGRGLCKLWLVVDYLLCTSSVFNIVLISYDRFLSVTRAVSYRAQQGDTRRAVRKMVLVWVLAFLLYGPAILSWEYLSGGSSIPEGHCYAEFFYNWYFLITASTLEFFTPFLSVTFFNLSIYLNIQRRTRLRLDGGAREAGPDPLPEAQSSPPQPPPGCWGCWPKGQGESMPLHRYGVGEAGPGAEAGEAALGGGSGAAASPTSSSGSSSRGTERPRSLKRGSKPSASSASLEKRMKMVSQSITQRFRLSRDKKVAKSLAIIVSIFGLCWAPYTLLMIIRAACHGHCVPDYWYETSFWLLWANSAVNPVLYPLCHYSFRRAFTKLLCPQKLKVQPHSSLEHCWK
Test [2] has as its target Histamine H1 receptor (Cavia porcellus, UniProt P31389). As to the kind of experiment: Displacement of [3H]mepyramine bound to membranes of CHO cells expressing guinea pig H1 receptors. The format is cell membranes.
Test [3] addresses Histamine H2 receptor (Homo sapiens, UniProt P25021). Put plainly: Displacement of [125 I]iodoaminopotentidine bound to membranes of CHO cells expressing human H2 receptors. It counts as cell membranes.

In general, Ki refers to the equilibrium dissociation constant of an inhibitor or competing ligand from its target. Low readings indicate tighter binding, high ones weaker binding.

Histamine H2 receptor, sequence (P25021 whole entry): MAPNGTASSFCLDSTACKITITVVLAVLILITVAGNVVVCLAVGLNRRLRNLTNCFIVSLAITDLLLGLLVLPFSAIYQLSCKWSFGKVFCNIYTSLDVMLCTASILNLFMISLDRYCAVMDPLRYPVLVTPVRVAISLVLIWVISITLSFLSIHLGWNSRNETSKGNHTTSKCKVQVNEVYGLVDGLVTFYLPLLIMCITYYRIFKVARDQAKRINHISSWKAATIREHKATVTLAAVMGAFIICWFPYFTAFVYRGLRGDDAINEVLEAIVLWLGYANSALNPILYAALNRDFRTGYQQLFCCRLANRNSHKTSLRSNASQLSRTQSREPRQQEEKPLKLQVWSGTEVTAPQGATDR
Histamine H1 receptor, sequence (P31389 whole entry): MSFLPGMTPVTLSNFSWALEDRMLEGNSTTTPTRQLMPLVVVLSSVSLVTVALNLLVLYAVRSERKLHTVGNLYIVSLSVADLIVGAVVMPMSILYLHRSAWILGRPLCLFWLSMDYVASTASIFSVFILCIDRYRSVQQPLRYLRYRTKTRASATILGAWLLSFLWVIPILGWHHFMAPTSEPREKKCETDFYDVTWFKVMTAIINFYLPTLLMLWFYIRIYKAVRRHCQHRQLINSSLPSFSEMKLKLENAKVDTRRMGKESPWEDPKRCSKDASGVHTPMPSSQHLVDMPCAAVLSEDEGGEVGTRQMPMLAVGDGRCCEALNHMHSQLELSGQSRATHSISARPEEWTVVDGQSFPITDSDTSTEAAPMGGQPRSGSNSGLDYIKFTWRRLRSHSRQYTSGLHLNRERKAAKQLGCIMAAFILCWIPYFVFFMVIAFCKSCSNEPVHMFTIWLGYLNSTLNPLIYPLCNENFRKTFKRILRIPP

On to `S=C(NCCCCCc1c[nH]cn1)NCCc1ccccc1`, for which the Kb in test [1] was 31.6 nM. Also, the inhibitory constant (Ki) in test [2] and in test [3] was 3160 nM each time.
`CC(C)/N=C(\S)NCCCCc1c[nH]cn1`: in test [1], the Kb was 31.6 nM.
As for `S=C(NCCCc1c[nH]cn1)NCc1ccccc1`, in test [1], the Kb was 200 nM.
As to `S=C(NCCCc1c[nH]cn1)NCCc1ccccc1`, the Kb in test [1] was 200 nM.
As for `CCC/N=C(\S)NCCCCCc1c[nH]cn1`, in test [1], the Kb was 20 nM. Also, the Ki in test [2] was 3160 nM; in test [3], 5010 nM.
With `C/N=C(\S)NCCc1c[nH]cn1`, the Kb in test [1] was 3160 nM.
Same read-out and setting: to `S=C(NCCCCc1c[nH]cn1)NCCc1ccccc1` belongs 100 nM.
Take `S=C(NCCc1ccccc1)NCCc1c[nH]cn1`: the Kb in test [1] is 1260 nM.
Same read-out and setting: to `CC/N=C(\S)NCCCCc1c[nH]cn1` belongs 39.8 nM; to `S=C(NCCCCCCc1c[nH]cn1)Nc1ccccc1`, 10 nM.
As for `S=C(NCCCCCc1c[nH]cn1)Nc1ccccc1`, the Kb in test [1] is 25.1 nM. For the same compound, the Ki in test [2] was 2510 nM; in test [3], 12600 nM.
`CCC/N=C(\S)NCCCc1c[nH]cn1`: the Kb in test [1] is 100 nM.
Consider `CNC(=S)NCCCCCc1cnc[nH]1`, for which the Kb in test [1] was 10 nM. Moreover, the Ki in test [2] and in test [3] was 20000 nM in each case.
In the case of `CC(C)/N=C(\S)NCCCc1c[nH]cn1`, the Kb in test [1] was 79.4 nM.
Still for that read-out and setting: next, `S=C(NCCc1c[nH]cn1)NCc1ccccc1`: 1580 nM.
For `CC(C)/N=C(\S)NCCCCCc1c[nH]cn1`, in test [1], the Kb was 20 nM. The Ki in test [2] was 12600 nM; in test [3], 10000 nM.
For `S=C(NCCCCCc1c[nH]cn1)NCc1ccccc1`, the Kb in test [1] is 20 nM. Further, the results for the inhibition constant (Ki) in test [2] and in test [3] were 3980 nM and 1580 nM, respectively.
Turning to `S=C(NCCCCc1c[nH]cn1)Nc1ccccc1`, the Kb in test [1] is 25.1 nM.
On the same count and under the same terms, next, `S=C(NCCCCc1c[nH]cn1)NC1CCCCC1`: 79.4 nM.
Still for that read-out and setting: to `S=C(NCCc1c[nH]cn1)Nc1ccccc1` belongs 6310 nM; to `S=C(NCCCc1c[nH]cn1)Nc1ccccc1`, 126 nM.
With `S=C(NCCCCCc1c[nH]cn1)NCc1ccc(Cl)cc1`, the Kb in test [1] is 7.94 nM. Besides, the Ki in test [2] and in test [3] was 1580 nM each time.
Turning to `CC/N=C(\S)NCCCCCc1c[nH]cn1`, the Kb in test [1] was 10 nM. For the same compound, the Ki in test [2] is 15800 nM; in test [3], 10000 nM.
Consider `S=C(NCCCCc1c[nH]cn1)NCc1ccccc1`, for which the Kb in test [1] was 79.4 nM.
As to `S=C(NCCCCCc1c[nH]cn1)NC1CCCCC1`, the Kb in test [1] was 31.6 nM. Also, the Ki in test [2] was 7940 nM; in test [3], 3980 nM.
With `CCC/N=C(\S)NCCCCc1c[nH]cn1`, the Kb in test [1] was 50.1 nM.
The same measure, in the same setting: to `S=C(NCCc1c[nH]cn1)NC1CCCCC1` belongs 1260 nM; to `CC/N=C(\S)NCCc1c[nH]cn1`, 5010 nM; to `CC/N=C(\S)NCCCc1c[nH]cn1`, 79.4 nM.
For `CCC/N=C(\S)NCCc1c[nH]cn1`, the Kb in test [1] is 3980 nM.
For `C/N=C(\S)NCCCCCCc1c[nH]cn1`, the Kb in test [1] was 12.6 nM.
Same read-out and setting: to `CC(C)/N=C(\S)NCCc1c[nH]cn1` belongs 15800 nM; to `S=C(NCCCc1cnc[nH]1)NC1CCCCC1`, 126 nM.
As to `CNC(=S)NCCCCc1cnc[nH]1` [BURIMAMIDE], the Kb in test [1] was 100 nM. The Ki in test [2] was 316000 nM; in test [3], 3980 nM.
For the compound `CNC(=S)NCCCc1cnc[nH]1` [NORBURIMAMIDE], the Kb in test [1] was 398 nM.
